Tests used:
[1] = system: NCI-H1975 cells; assay: NCI-H1975 subcutaneous xenograft (tumor growth, tumor weight, metastasis); type: in vivo, BALB/c nude mice; conditions: dose not given
[2] = system: EGFR signaling proteins in xenograft tumors; assay: Immunoblot / CO-IP of xenograft tumor tissue; type: in vivo; conditions: NCI-H1975 inoculated mice, long-term treatment
Description: Data in a–d are presented as means ± SEM, n = 8. e The EGFR–TRIB3 or EGFR–PKCα interaction in xenograft tumors from indicated mice were detected with CO-IP assays. […] Data are means ± SEM of three independent assays. Statistical significance between two groups was determined with two-tailed Student’s t test. Statistical significance among groups was determined by one-way ANOVA test.
Data are means ± SEM, n = 8. d, EGFR and its signaling proteins in xenograft tumors from NCI-H1975 inoculated mice were detected by IB. e, Stem cell markers in xenograft tumors from NCI-H1975 inoculated mice mice were detected by IB. f, Expressions of TRIB3 and EGFR were detected by IB in tumor samples from PDX mice. g, NCI-H1975 cells were treated with 5 µM of the indicated peptides or 0.5 µM AZD9291for 24 hr. The expression of indicated proteins was detected with IB. h, NCI-H1975 cells were treated with 5 µM of the indicated peptides for 24 hr. The expression of several receptor tyrosine kinases was detected with IB. i, NCI-H1975 cells were pretreated with 5 µM of the indicated peptides for 12 hr. […] The indicated proteins were detected by IB. […] Statistical significance between two groups was determined by two-tailed Student’s t-test; Statistical significance among groups was determined by one-way ANOVA test. […]
analysis. Signals were detected by Tanon 5200 chemiluminescent imaging system (Tanon, […]

[3] = system: NCI-H1975 cells; assay: Immunoblot of EGFR, HER2 and receptor tyrosine kinases, NCI-H1975 cells; type: cell-based, human
Description: Data are means ± SEM, n = 8. d, EGFR and its signaling proteins in xenograft tumors from NCI-H1975 inoculated mice were detected by IB. e, Stem cell markers in xenograft tumors from NCI-H1975 inoculated mice mice were detected by IB. f, Expressions of TRIB3 and EGFR were detected by IB in tumor samples from PDX mice. g, NCI-H1975 cells were treated with 5 µM of the indicated peptides or 0.5 µM AZD9291for 24 hr. The expression of indicated proteins was detected with IB. h, NCI-H1975 cells were treated with 5 µM of the indicated peptides for 24 hr. The expression of several receptor tyrosine kinases was detected with IB. i, NCI-H1975 cells were pretreated with 5 µM of the indicated peptides for 12 hr. The cells were then incubated with CHX (10 µg ml-1) for indicated times. The indicated proteins were detected by IB. Data are means ± SEM of 3 independent assays. Data in d-h are representatives of 3 independent assays. Statistical significance between two groups was determined by two-tailed Student’s t-test; Statistical significance among groups was determined by one-way ANOVA test. Source data are provided as a Source Data ﬁle.
Immunoblotting, Immunostaining and Immunohistochemistry
Proteins were extracted from cells and tissues using a RIPA lysis buffer (Applygen
Technologies Inc. Beijing, China). Equal protein amounts were loaded for SDS-PAGE,
followed by transfer to polyvinylidene difluoride membranes, and subjected to immunoblot
analysis. Signals were detected by Tanon 5200 chemiluminescent imaging system (Tanon,
Shanghai, China). The western blots were scanning densitometry using Gel Pro Analyzer 3.2
and calculated relative to GAPDH. If not specifically indicated, the data was presented as means
± SEMs of 3 independent biological experiments.

[4] = system: proteinase K; assay: Metabolic stability of peptide: proteinase K resistance; type: in vitro ADME; conditions: panel Fig.S6e
Description: Metabolic stability of peptide
The sample solution consisted of 15 µl peptide solution (1 mM ) and 585 µl Tris-HCl (pH = 7.4) buffer. Pepsin solution (4,500 U ml-1, 8 µl) or proteinase K solution (4 ng ml-1, 8 µl) was added to the sample solution and incubated at 25℃ for indicated times. Peptide concentrations were […]
detected by Exactive™ Plus Orbitrap (Thermo Fisher Scientific, USA). […]

[5] = system: A549 cells; assay: A549 subcutaneous xenograft (tumor growth, tumor weight, liver metastasis); type: in vivo, BALB/c nude mice; conditions: dose not given
Description: Fig. 7 Targeting EGFR stability inhibits lung cancer initiation and progression. a A549 tumor growth curves under different treatment. b Quantitative analysis of metastatic nodule numbers from mice as described in a. c NCI-H1975 tumor growth curves under different treatment. d Quantitative analysis of metastatic nodule numbers from mice as described in c. Data in a–d are presented as means ± SEM, n = 8. e The EGFR–TRIB3 or EGFR–PKCα interaction in xenograft tumors from indicated mice were detected with CO-IP assays. […] Statistical difference was determined by two-sided log-rank test, n = 14. i Survival curves for mice orthotopically lung implanted with NCI-H1975 cells under indicated treatment. […] Data are means ± SEM of three independent assays. Statistical significance between two groups was determined with two-tailed Student’s t test. Statistical significance among groups was determined by one-way ANOVA test. Source data are provided as a Source Data file. […]
a, Quantified tumor weight from mice subcutaneously inoculated with A549 cells under indicated treatment after tumor inoculation. Data are means ± SEM, n = 8. b, Representative graphs of liver and immunohistochemical staining of the liver sections with anti-hMitochondria […]
IB. Data are means ± SEM of 3 independent assays. Data in d-h are representatives of 3 independent assays. Statistical significance between two groups was determined by two-tailed Student’s t-test; Statistical significance among groups was determined by one-way ANOVA test. Source data are provided as a Source Data ﬁle.
For the subcutaneous tumor model, A549 (1.0×10 5), NCI-H1975 (3.0×105) or patient-derived NSCLC cancer cells (4.0×105) were injected subcutaneously into the right flank of each mouse to establish the NSCLC xenograft model. When average tumor volume reached about 100 mm3, mice were randomized into various groups for different sets of experiments. Tumor growth was monitored twice weekly with a caliper. Tumor volume (TV) was calculated using the formula: […]

[6] = system: cell surface EGFR in A549 cells; assay: Cell surface EGFR by flow cytometry, A549; type: cell-based, human
Description: Fig. 2 TRIB3 promotes EGFR recycling to enhance its stability and signaling activity. a Control or TRIB3-silenced A549 cells were treated with cycloheximide (CHX) (10 µg ml^−1) at indicated intervals and protein stability of EGFR was analyzed by IB. Data are means ± SEM of four independent assays. b A549 cells stably expressed control-shRNA or TRIB3-shRNA plasmid were stimulated with or without EGF (100 ng ml^−1) for 1 h. Indicated proteins were analyzed by IB analysis. Data represent means ± SEM of three independent assays. c Confocal microscopy images show the distribution of EGFR and early endosome antigen 1 (EEA-1) in control or TRIB3-silenced A549 cells before and after 0.5 or 1 h of EGF (100 ng ml^−1) stimulation. Quantification of EGFR and EEA-1 colocalization was shown as Pearson’s coefficient. Data are means ± SEM of three independent assays. d Quantitative analyses of cell surface EGFR in A549 cells stably expressed control-shRNA or TRIB3-shRNA1. Cells were preincubated with DMSO or 10 μM monensin for 4 h, and then treated with or without EGF (100 ng ml^−1) for another 1 h. The Mean Fluorescence Intensity (MFI) of EGFR on cell surface was detected by flow cytometry analysis. Top: representative flow cytometry data. Bottom: the data were normalized to A549/control-shRNA cells without EGF stimulation, which was considered as 100% MFI signal. Data are means ± SEM of three independent assays. e EGFR recycling was detected in A549 cells stably expressed control-shRNA or TRIB3-shRNA1 plasmid. Data are means ± SEM of three independent assays. f Colocalization analysis of EGFR with Rab11 and LAMP-1 before or after 30 min EGF treatment in control and TRIB3-silenced A549 cells. Quantification of EGFR/Rab11 or EGFR/LAMP-1 colocalization was shown as Pearson’s coefficient. Data represent means ± SEM of three independent assays. Statistical significance between two groups was determined with two-tailed Student’s t test. Statistical significance among groups was determined by one-way ANOVA test. Source data are provided as a Source Data file. […]
Live cells were stained with Alexa-Fluro 488 anti-EGFR antibody (Santa Cruz, R-1, #sc-101
AF488, 1:100). Analysis was performed using a PARTEC EPICSXL (Germany) and data was
analyzed using FCS Express 6. […]

[7] = H1975 cells, treatment for 12 hr

`C=CC(=O)Nc1cc(Nc2nccc(-c3cn(C)c4ccccc34)n2)c(OC)cc1N(C)CCN(C)C` [AZD9291] was tested, and the “Tumor Weight” value ([1]; animal 1) was 0.09 g, the “Tumor Weight” value ([1]; animal 2) was 0.11 g and the “Tumor Weight” value ([1]; animal 3) was 0.04 g. The “Tumor Weight” value ([1]; animal 4) was 0.05 g, the “Tumor Weight” value ([1]; animal 5) was 0.07 g and the “Tumor Weight” value ([1]; animal 6) was 0.08 g. For the same compound, the “Tumor Weight” value ([1]; animal 7) was 0.02 g, the “Tumor Weight” value ([1]; animal 8) was 0.08 g and the “expression / phosphorylation of STAT3, STAT5 (and ERK1/2) in xenograft tumor tissue” value [2] was “upregulated the expression and phosphorylation of STAT3, STAT5, and ERK1/2”. For the same compound, the “expression of EGFR and TRIB3 in xenograft tumor tissue” value [2] was “reduced TRIB3 and EGFR expression”, the “expression of pEGFR T654, PKCα, TRIB3 and EGFR” value [3, 7] was “had no effect” and the “pEGFR Y1068” value [3, 7] was “markedly reduced”. For the same compound, the “phosphorylation and expression of HER2” value ([3]; NCI-H1975 cells, 5 µM peptide or 0.5 µM AZD9291, 24 hr) was “suppressive effect on HER2 phosphorylation”.
In the case of `CC[C@H](C)[C@H](NC(=O)[C@H](CCCNC(=N)N)NC(=O)[C@H](CC(C)C)NC(=O)[C@H](CC(C)C)NC(=O)[C@H](C)NC(=O)[C@H](CCC(N)=O)NC(=O)[C@@H](N)CC(N)=O)C(=O)N[C@@H](CC(C)C)C(=O)N[C@@H](CCCNC(=N)N)C(=O)N[C@@H](CCC(=O)O)C(=O)N[C@H](C(=O)N[C@@H](CCC(=O)O)C(=O)N[C@@H](Cc1ccccc1)C(=O)N[C@@H](CCCCN)C(=O)N[C@@H](CCCCN)C(=O)O)[C@@H](C)O` [JGZ], the “Fraction Intact (%)” value ([4]; time 45 min, replicate 1) is reported as 15.4158%, the “Fraction Intact (%)” value ([4]; time 45 min, replicate 2) is reported as 19.3884% and the “Fraction Intact (%)” value ([4]; time 45 min, replicate 3) is reported as 17.4109%. For the same compound, the “Fraction Intact (%)” value ([4]; time 90 min, replicate 1) was 4.517%, the “Fraction Intact (%)” value ([4]; time 90 min, replicate 2) was 5.842% and the “Fraction Intact (%)” value ([4]; time 90 min, replicate 3) was 5.149%. For the same compound, the “Fraction Intact (%)” value ([4]; time 135 min, replicate 1) was 1.978%, the “Fraction Intact (%)” value ([4]; time 135 min, replicate 2) was 2.87% and the “Fraction Intact (%)” value ([4]; time 135 min, replicate 3) was 2.235%. For the same compound, the “Fraction Intact (%)” value ([4]; time 180 min, replicate 1) was 0.9859%, the “Fraction Intact (%)” value ([4]; time 180 min, replicate 2) was 1.636% and the “Fraction Intact (%)” value ([4]; time 180 min, replicate 3) was 1.16%. For the same compound, the “Fraction Intact (%)” value ([4]; time 225 min, replicate 1) was 0.5923%, the “Fraction Intact (%)” value ([4]; time 225 min, replicate 2) was 0.9865% and the “Fraction Intact (%)” value ([4]; time 225 min, replicate 3) was 0.582%. For the same compound, the “Fraction Intact (%)” value ([4]; time 270 min, replicate 1) was 0.003342%, the “Fraction Intact (%)” value ([4]; time 270 min, replicate 2) was 0.3276% and the “Fraction Intact (%)” value ([4]; time 270 min, replicate 3) was 0.1279%. For the same compound, the “Fraction Intact (%)” value ([4]; time 360 min, replicate 1) was 0%, the “Fraction Intact (%)” value ([4]; time 360 min, replicate 2) was 0.07064% and the “Fraction Intact (%)” value ([4]; time 360 min, replicate 3) was 0.09951%. The “Fraction Intact (%)” value ([4]; time 450 min, replicate 1) was 0%, the “Fraction Intact (%)” value ([4]; time 450 min, replicate 2) was 0.04231% and the “Fraction Intact (%)” value ([4]; time 450 min, replicate 3) was 0.01388%. The “Fraction Intact (%)” value ([4]; time 540 min, replicate 1) was 0%, the “Fraction Intact (%)” value ([4]; time 540 min, replicate 2) was 0.01049% and the “Fraction Intact (%)” value ([4]; time 540 min, replicate 3) was 0.003119%.
In the case of `COc1cc2ncnc(Nc3ccc(F)c(Cl)c3)c2cc1OCCCN1CCOCC1` [gefitinib], the “Tumor Weight” value ([1]; animal 1) is reported as 0.19 g, the “Tumor Weight” value ([1]; animal 2) is reported as 0.56 g and the “Tumor Weight” value ([1]; animal 3) is reported as 0.23 g. The “Tumor Weight” value ([1]; animal 4) was 0.63 g, the “Tumor Weight” value ([1]; animal 5) was 0.13 g and the “Tumor Weight” value ([1]; animal 6) was 0.48 g. For the same compound, the “Tumor Weight” value ([1]; animal 7) was 0.33 g, the “Tumor Weight” value ([1]; animal 8) was 0.37 g and the “Tumor Weight” value ([5]; animal 1) was 0.95 g. The “Tumor Weight” value ([5]; animal 2) was 0.28 g, the “Tumor Weight” value ([5]; animal 3) was 0.5 g and the “Tumor Weight” value ([5]; animal 4) was 0.76 g. For the same compound, the “Tumor Weight” value ([5]; animal 5) was 0.71 g, the “Tumor Weight” value ([5]; animal 6) was 0.63 g and the “Tumor Weight” value ([5]; animal 7) was 0.92 g. For the same compound, the “Tumor Weight” value ([5]; animal 8) was 0.87 g.
For “EGF: epidermal growth factor used as stimulus, 100 ng ml−1”, the “Cell Surface EGFR(%MFI)” value ([6]; A549/Control-shRNA, DMSO or 10 μM monensin 4 h, then EGF 100 ng ml−1 1 h, flow cytometry, A549/control-shRNA without EGF = 100%, replicate 1) was 80.5481 %MFI, the “Cell Surface EGFR(%MFI)” value ([6]; A549/Control-shRNA, same treatment, replicate 2) was 86.3646 %MFI and the “Cell Surface EGFR(%MFI)” value ([6]; A549/Control-shRNA, same treatment, replicate 3) was 89 %MFI. The “Cell Surface EGFR(%MFI)” value ([6]; A549/TRIB3-shRNA, DMSO or 10 μM monensin 4 h, then EGF 100 ng ml−1 1 h, flow cytometry, A549/control-shRNA without EGF = 100%, replicate 1) was 27.82 %MFI, the “Cell Surface EGFR(%MFI)” value ([6]; A549/TRIB3-shRNA, same treatment, replicate 2) was 26.66 %MFI and the “Cell Surface EGFR(%MFI)” value ([6]; A549/TRIB3-shRNA, same treatment, replicate 3) was 25.66 %MFI.

— article PMC7374170, “TRIB3-EGFR interaction promotes lung cancer progression and defines a therapeutic target” (Nature Communications, 2020)
